# Measurements from a melting point compilation (Tetko et al.).
# Starred links: 1 amine or outer side, 2 acyl side, 3 side chain; linkers in the order of their positions; H or OH if unused. Non-standard residues stand in square brackets, D forms with d. Residues, ends and D or L forms follow the SMILES beside them. *: point of attachment. X5 = CCC(=O)OC1(C(=O)C(O)O*)CCC2C3CC(C)C4=CC(=O)C=CC4(C)C3C(O)CC21C; Phe(2-Me) = Cc1ccccc1C[CH](N)C(=O)O; X2 = CC(F)(F)CC(N[*:1])C(=O)[*:2]; Suc = O=C(CCC(=O)[*:2])[*:1]; Tle = CC(C)(C)[CH](N)C(=O)O; Pentanoyl = CCCCC(=O)*
row,Structure (SMILES),melting point [°C]
1,C=CCN1C(C)(C)CC(N(CCCC)c2nc(N(CCCC)C3CC(C)(C)N(CC=C)C(C)(C)C3)nc(N(CCCC)C3CC(C)(C)N(CC=C)C(C)(C)C3)n2)CC1(C)C,161 to 163
2,CC(=O)OCC1OC(OC2C(COC(C)=O)OC(OC3C(CO)OC(OCCBr)C(OC(=O)c4ccccc4)C3OC(=O)c3ccccc3)C(OC(C)=O)C2OC(C)=O)C(OC(C)=O)C(OC(C)=O)C1OC(C)=O (configuration not stated),218 to 220
3,CCCCCCCCCCCS(=O)(=O)c1cc2c3cc(S(=O)(=O)CCCCCCCCCCC)c(S(=O)(=O)CCCCCCCCCCC)cc3c3cc(S(=O)(=O)CCCCCCCCCCC)c(S(=O)(=O)CCCCCCCCCCC)cc3c2cc1S(=O)(=O)CCCCCCCCCCC,179 to 180
4,COCCOc1ccc(/C=C(\C)C(=O)NS(=O)(=O)CC(F)(F)F)c(Oc2ncc(C(F)(F)F)cc2Cl)c1,159 to 160
5,COc1cc(OC)c(/C=C/C(c2ccc(OC)c(NC(N)=O)c2)S(=O)(=O)C(/C=C/c2c(OC)cc(OC)cc2OC)c2ccc(OC)c(NC(N)=O)c2)c(OC)c1 (configuration not stated),218 to 220
6,O=C(O)c1ccccc1Oc1ccc(C(F)(F)F)cc1N(S(=O)(=O)c1cc(C(F)(F)F)cc(C(F)(F)F)c1)S(=O)(=O)c1cc(C(F)(F)F)cc(C(F)(F)F)c1,204 to 205
7,CCCc1[nH]c2ccccc2c1C1(c2ccc(N(CC)CC)cc2OCCCCOc2cc(N(CC)CC)ccc2C2(c3c(CCC)[nH]c4ccccc34)OC(=O)c3ccccc32)OC(=O)c2ccccc21 (configuration not stated),140
8,CNC(=O)OC(COc1ccc(C(C)(C)c2ccc(OCC(CN3C(=O)NC4(CC(C)(C)NC(C)(C)C4)C3=O)OC(=O)NC)cc2)cc1)CN1C(=O)NC2(CC(C)(C)NC(C)(C)C2)C1=O (configuration not stated),238 to 242
9,O=C(O)c1ccnc(F)c1,195 to 197
10,Cc1ccccc1CC(NC(=O)C(CCC(=O)O)NC(=O)C(CC(=O)O)NC(=O)CCC(=O)O)C(=O)NC(C(=O)NC(CC(C)C)C(=O)NC(C=O)CC(C)(F)F)C(C)(C)C (configuration not stated) (Suc-DE[Phe(2-Me)][Tle]L[X2]-aldehyde; configuration not given here),128 to 130
11,Cc1ccc(Cl)cc1C(N)=NO,111 to 113
12,CN(C(=O)Cc1c(-c2ccccc2)c2ccccc2c(=O)n1C)c1cc(C(F)(F)F)cc(C(F)(F)F)c1,193 to 194
13,CCC1(CC)c2cc(-c3nc4ccccc4s3)ccc2-c2ccc(C(CCCCCN)c3ccc4c(c3)C(CC)(CC)c3cc(-c5nc6ccccc6s5)ccc3-4)cc21,108 to 109
14,c1ccc(C2CN3CCSC3=N2)cc1 (configuration not stated),60 to 61.5
15,C=C(C)C(=O)OCCCCOC(=O)C(=C)C,-117
16,CP(C)CCP(C)C,0
17,CC(C)(C)c1cc(CCC(=O)OCC(COC(=O)CCc2cc(C(C)(C)C)c(O)c(C(C)(C)C)c2)(COC(=O)CCc2cc(C(C)(C)C)c(O)c(C(C)(C)C)c2)COC(=O)CCc2cc(C(C)(C)C)c(O)c(C(C)(C)C)c2)cc(C(C)(C)C)c1O,55 to 85
18,CCn1cc(C(=O)Nc2cc(Oc3ccc4nc(NC(=O)C5CC5)cn4n3)ccc2Cl)c(C)n1,200
19,CCc1nc(OC)c(NC(=O)N2CCN(c3cc(C)cc(C)c3)CC2)cc1C(=O)NC(C)C(=O)Nc1cc(CO)cc(Nc2c3ccccc3nc3c(C)c(C)ccc23)c1 (configuration not stated),176 to 178
20,O=C(CN1CCN(C(=O)c2cc(C(F)(F)F)cc(C(F)(F)F)c2)[C@H](Cc2c[nH]c3ccccc23)C1)N1CCN(C(c2ccccc2)(c2ccccc2)c2ccccc2)CC1,160 to 166
21,CCC1(CC)c2cc(-c3nc4cc5sc(-c6ccc7c(c6)C(CC)(CC)c6cc(N(c8ccccc8)c8ccccc8)ccc6-7)nc5cc4s3)ccc2-c2ccc(N(c3ccccc3)c3ccccc3)cc21,180 to 183

row,Structure (SMILES),melting point [°C]
1,CC(C)(C)c1cc(C(=O)OCCN(CCOC(=O)c2cc(C(C)(C)C)c(O)c(C(C)(C)C)c2)C(=O)c2cc(C(C)(C)C)c(O)c(C(C)(C)C)c2)cc(C(C)(C)C)c1O,200 to 202
2,CCCCCCCCCCCCCCCC(=O)OCC1OC(n2cc(F)c(=O)n(C(=O)c3cccc(OC)c3OC)c2=O)CC1OC(=O)CCCCCCCCCCCCCCC (configuration not stated),77 to 78
3,COc1cccc2c1CC[C@@H](C(=O)O)C2,150 to 152
4,CC(=O)OCC(CNC(=O)c1c(I)c(C(=O)NCC(COC(C)=O)OC(C)=O)c(I)c(N2CCCC(Br)C2=O)c1I)OC(C)=O (configuration not stated),232 to 235
5,CC(CO)Nc1nc(Nc2ccc(S(C)(=O)=NS(=O)(=O)CC[Si](C)(C)C)cc2)ncc1Br (mixture of isomers),194 to 197
6,CCCCCCCCCCCCCCCCCCN(CCCCCCCCCCCCCCCCCC)C(=O)c1cc(NS(=O)(=O)c2cnc(Cl)c(Cl)c2)c2ccccc2c1O,88 to 89
7,Cc1cc(CCC(=O)OCC(COC(=O)CCc2cc(C)c(O)c(C(C)(C)C)c2)(COC(=O)CCc2cc(C)c(O)c(C(C)(C)C)c2)COC(=O)CCc2cc(C)c(O)c(C(C)(C)C)c2)cc(C(C)(C)C)c1O,45 to 55
8,N#Cc1cccc(N2CCOCC2)c1,105
9,CN1CCCC1=NC(=O)Nc1ccc(OCc2ccccc2)cc1,140 to 142
10,COc1ccc(OC)c(CCNC(=O)N[C@H](Cc2cc(Br)c(O)c(Br)c2)C(=O)N[C@@H](CCCCN)C(=O)N2CCN(c3ccncc3)CC2)c1,135 to 137
11,CCCCCCCCCCCCCCCC(=O)C(O)C(O)(C(=O)c1cccc(NC(=O)C(CS)Cc2ccccc2)c1)C(O)C(=O)CCCCCCCCCCCCCCC (configuration not stated),66 to 68
12,CC(C)COc1c(-c2ccc(S(N)(=O)=O)c(F)c2)cnn(-c2cccc(Cl)c2)c1=O,157 to 159
13,CCCCCCCCNC(=O)CO,80
14,CC(C)(C)OC(=O)N(CNCCNC(=O)CCOCC(COCCC(=O)NCCNCN(C(=O)OC(C)(C)C)C(=O)OC(C)(C)C)(COCCC(=O)NCCNCN(C(=O)OC(C)(C)C)C(=O)OC(C)(C)C)NC(=O)OCc1ccccc1)C(=O)OC(C)(C)C,86 to 88
15,CCCCCCCCCCCCCCCCS(=O)(=O)Nc1ccc2c(c1)C(NS(=O)(=O)CCCCCCCCCCCCCCCC)(c1ccccc1)C=N2 (configuration not stated),210 to 212
16,CCOP(=O)(OCC)Oc1ccc([N+](=O)[O-])cc1,35 to 38
17,COc1cc(OC)c(/C=C/C(c2ccc(OC)c(NC(=O)c3ccccc3)c2)S(=O)(=O)C(/C=C/c2c(OC)cc(OC)cc2OC)c2ccc(OC)c(NC(=O)c3ccccc3)c2)c(OC)c1 (configuration not stated),163 to 166
18,COC(=O)COC1C(NC(C)=O)C(OCc2ccccc2)OC(COCc2ccccc2)C1OC1OC(COCc2ccccc2)C(OCc2ccccc2)C(OCc2ccccc2)C1NC(C)=O (configuration not stated),221 to 223
19,FC(F)(Br)C(F)(Cl)Br (configuration not stated),-72.9
20,CO/N=C(\C(=O)N[C@@H]1C(=O)N2C(C(=O)OC(C)(C)C)=C(CI)SC[C@H]12)c1nc(C(c2ccccc2)(c2ccccc2)c2ccccc2)sc1N,150
21,FC(F)(F)C(F)(F)C(F)(F)C(F)(F)C(F)(F)C(F)(F)C(F)(F)C(F)(F)CCC1(CCC(F)(F)C(F)(F)C(F)(F)C(F)(F)C(F)(F)C(F)(F)C(F)(F)C(F)(F)F)c2cc(Br)ccc2-c2ccc(Br)cc21,130 to 131

row,Structure (SMILES),melting point [°C]
1,CCCCCCCCCCCCCCCCCN1C(=O)C2=C(c3ccc(Br)s3)N(CCCCCCCCCCCCCCCCC)C(=O)C2=C1c1ccc(Br)s1,166 to 167
2,CC1=NN(CCCc2ccccc2)C(=O)C1,103 to 105
3,CCC(C)C1NC(=O)C(NC(=O)C(CC(C)C)N(C)C(C)=O)C(C)OC(=O)C(Cc2ccc(OC)cc2)N(C)C(=O)C2CCCN2C(=O)C(CC(C)C)NC(=O)C(C)C(=O)C(C(C)C)OC(=O)CC1OC(C)=O (configuration not stated),130 to 133
4,CC(=O)OCC1OC(OC2C(COC(C)=O)OC(OC3C(COC(C)=O)OC(OCCBr)C(N4C(=O)c5ccccc5C4=O)C3OC(C)=O)C(OC(C)=O)C2OC(C)=O)C(OC(C)=O)C(OC(C)=O)C1OC(C)=O (configuration not stated),227 to 229
5,CN(C)c1ccccn1,0
6,O=C(OCc1ccc(OCCCCCCCCCCC2c3c(c4ccccc4c4ccccc34)-c3c2c2ccccc2c2ccccc32)cc1)c1cn(C2CC2)c2cc(F)c(F)cc2c1=O,71 to 73
7,CCOC(=O)C(C)c1cc(C)c(C(=O)c2ccc(Cl)cc2)n1C (configuration not stated),88 to 90
8,CCOC(=O)c1c(Nc2ccccc2)n[nH]c1C,160 to 164
9,CC1c2cc(C(C)(C)C)cc(C(C)(C)C)c2OP(OP2Oc3c(cc(C(C)(C)C)cc3C(C)(C)C)C(C)c3cc(C(C)(C)C)cc(C(C)(C)C)c3O2)Oc2c1cc(C(C)(C)C)cc2C(C)(C)C (configuration not stated),281 to 285
10,O=c1cc(O)cc(-c2ccc(Cl)cc2)o1,247 to 249
11,CCOC(=O)c1cn(C23CC(C2)C3)c2c(F)c(F)c(F)cc2c1=O,176 to 178
12,CC(c1cc(C(C)(C)C)cc(C(C)(C)C)c1O)c1cc(C(C)(C)C)cc(C(C)(C)C)c1Op1oc2c(C(C)(C)C)cc(C(C)(C)C)cc2c2cc(C(C)(C)C)cc(C(C)(C)C)c2o1 (configuration not stated),273 to 277
13,Cc1cc(C)c(N2c3ccccc3S(=O)(=O)c3cc(C=Cc4ccc(-c5ccc(C=Cc6ccc7c(c6)S(=O)(=O)c6ccccc6N7c6c(C)cc(C)cc6C)cc5)cc4)ccc32)c(C)c1,> 350
14,Ic1cc(NC2=NCCN2)cc2[nH]cnc12,180 to 181
15,O=Cc1ccc(OC(F)F)c(O)c1,82 to 83
16,CCOC(=O)c1cc2cc(OC)cc(NS(=O)(=O)c3cccs3)c2[nH]1,158 to 159
17,CCCCCCCCCCCCCCOc1ccc(N(CC(=O)OCc2ccccc2)CC(=O)OCc2ccccc2)cc1OCCCCCCCCCCCCCC,52
18,CC(OC(C)C(I)=C(I)I)C(I)=C(I)I (configuration not stated),43.5 to 44.5
19,C=CCN(CC=C)c1nc(OC)nc(N(CCCCCCN(c2nc(OC)nc(N(CC=C)CC=C)n2)C2CC(C)(C)NC(C)(C)C2)C2CC(C)(C)NC(C)(C)C2)n1,113 to 115
20,CCCCC(=O)NC(C)C(=O)NC(C)C(=O)N1CCCC1C(=O)NC(C(=O)OC(O)C(=O)C1(OC(=O)CC)CCC2C3CC(C)C4=CC(=O)C=CC4(C)C3C(O)CC21C)C(C)C (configuration not stated) (Pentanoyl-AAPV-X5; configuration not given here),142
